Results reported in ChEMBL document CHEMBL3580626, “Scaffold hopping of potential anti-tumor agents by WEGA: a shape-based approach” (Medchemcomm, 2014).

Experiments:
HepG2 = experiment: Cytotoxicity against human HepG2 cells assessed as reduction in cell viability after 48 hrs by CCK8 assay; type: functional, cell-based; settings: HepG2, 48 h
[1] = Cytotoxicity against human LO2 cells assessed as reduction in cell viability after 48 hrs by CCK8 assay; type: cell-based; settings: L02, 48 h

Row | Structure (SMILES) | IC50 (HepG2; read-out: pIC50 (converted)) [µM] | IC50 [1] [µM] | IC50 (HepG2; read-out: IC50) [µM]
1 | CC(=O)N1c2ccccc2CCc2ccc(N)cc21 | > 158 | – | –
2 | COC1=Cc2ccccc2N(C(N)=O)c2ccccc21 | > 158 | – | –
3 | CC(=O)N1c2ccccc2CCc2ccc(Cl)cc21 | > 158 | – | –
4 | COC1=Cc2ccccc2Nc2ccccc21 | 70.8 | – | –
5 | CC(CN1c2ccccc2S(=O)(=O)c2ccccc21)N(C)C (stereo unspecified) | > 158 | – | –
6 | CCN1c2ccccc2CCc2ccc(Cl)cc21 | > 158 | – | –
7 | c1ccc2c(c1)[nH]c1cccc(OCC3CO3)c12 (stereo unspecified) | 17 | > 160 | –
8 | O=C(Cl)N1c2ccccc2C=Cc2ccccc21 | 33.9 | – | –
9 | Oc1cccc2[nH]c3ccccc3c12 | 123 | – | –
10 | c1ccc2c(c1)CCc1ccccc1N2 | > 158 | – | –
11 | NC(=O)N1c2ccccc2C=Cc2ccccc21 [CARBAMAZEPINE] | > 158 | – | –
12 | CC(C(=O)O)c1ccc2c(c1)[nH]c1ccc(Cl)cc12 (stereo unspecified) [CARPROFEN] | 166 | – | –
13 | COc1ccccc1OCCNCC(O)COc1cccc2[nH]c3ccccc3c12 (stereo unspecified) [CARVEDILOL] | 17.4 | 85 | –
14 | CN1CCN(C2=Nc3cc(Cl)ccc3Nc3ccccc32)CC1 [CLOZAPINE] | 47.9 | – | –
15 | OCCN1CCN(CCCN2c3ccccc3Sc3ccc(C(F)(F)F)cc32)CC1 [FLUPHENAZINE] | 4.37 | > 160 | 4.4
16 | C1=Cc2ccccc2Nc2ccccc21 [IMINOSTILBENE] | > 158 | – | –
17 | CC(CN(C)C)CN1c2ccccc2Sc2ccccc21 (stereo unspecified) [METHYLPROMAZINE] | 61.7 | – | –
18 | NC(=O)N1c2ccccc2CC(=O)c2ccccc21 [OXCARBAZEPINE] | 19.5 | > 160 | –
19 | OCCN1CCN(CCCN2c3ccccc3Sc3ccc(Cl)cc32)CC1 [PERPHENAZINE] | 16.2 | > 160 | –
20 | c1ccc2c(c1)Nc1ccccc1O2 [PHENOXAZINE] | 204 | – | –
